Assay results from US10023593B2, “ALK kinase inhibitor, and preparation method and uses thereof” (BEIJING PEARL BIOTECHNOLOGY LIMITED LIABILITY COMPANY, priority 2014, dated 2018).

Key:
cytochrome P450 2D6 = cytochrome P450 2D6 (Homo sapiens, UniProt P10635); assay: Inhibitory activity on cytochrome P450 2D6; type: in vitro ADME; conditions: no significant inhibition
cytochrome P450 3A4 = cytochrome P450 3A4 (Homo sapiens, UniProt P08684); assay: Inhibitory activity on cytochrome P450 3A4; type: in vitro ADME; conditions: no significant inhibition
cytochrome P450 2C9 = cytochrome P450 2C9 (Homo sapiens, UniProt P11712); assay: Inhibitory activity on cytochrome P450 2C9; type: in vitro ADME; conditions: no significant inhibition
Karpas-299 cell line = assay: CellTiter-Glo cell proliferation inhibition on Karpas-299 cell line; type: cell-based; conditions: Homo sapiens, 96 h, Karpas-299 cells, 5000 cells/well, 4 days drug treatment
Outline: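 CellTiter-Glo luminescence measured after 4-day compound exposure (0.5% DMSO final) of Karpas-299 cells seeded at 5000/well in RPMI-1640 with 10% FBS, 37 °C, 5% CO2. IC50 derived from percent inhibition relative to vehicle wells.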

Wild Type ALK kinase = molecular target: T1, Wild Type ALK kinase (Homo sapiens, UniProt Q9UM73); assay: HTRF KinEASE-TK assay, inhibitory activity on wild type ALK kinase; type: biochemical; conditions: wild type ALK 1 ng/μl, substrate 1 μM, 30° C. 35 minutes, read-out: Inhibition on ALK kinases (wildtype), IC50
T1 construct: purchased Sino-US Crown Bioscience, Inc. batch number ALK 20110607
Outline: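 ALK kinase at 1 ng/μl and substrate at 1 μM were reacted with compound (1% DMSO) in buffer with 5 mM MgCl2 and 1 mM DTT for 35 min at 30 °C. HTRF detection used the 665/615 ratio, normalised to no-compound wells and to 10.4 μM LDK-378 wells. IC50 came from a concentration-response fit.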

cytochrome P450 2C19 = cytochrome P450 2C19 (Homo sapiens, UniProt P33261); assay: Inhibitory activity on cytochrome P450 2C19; type: in vitro ADME; conditions: no significant inhibition
cytochrome P450 1A2 = molecular target: T2, cytochrome P450 1A2 (Homo sapiens, UniProt P05177); assay: Inhibitory activity on cytochrome P450 1A2; type: in vitro ADME; conditions: no significant inhibition
T2 sequence (P05177 1-516): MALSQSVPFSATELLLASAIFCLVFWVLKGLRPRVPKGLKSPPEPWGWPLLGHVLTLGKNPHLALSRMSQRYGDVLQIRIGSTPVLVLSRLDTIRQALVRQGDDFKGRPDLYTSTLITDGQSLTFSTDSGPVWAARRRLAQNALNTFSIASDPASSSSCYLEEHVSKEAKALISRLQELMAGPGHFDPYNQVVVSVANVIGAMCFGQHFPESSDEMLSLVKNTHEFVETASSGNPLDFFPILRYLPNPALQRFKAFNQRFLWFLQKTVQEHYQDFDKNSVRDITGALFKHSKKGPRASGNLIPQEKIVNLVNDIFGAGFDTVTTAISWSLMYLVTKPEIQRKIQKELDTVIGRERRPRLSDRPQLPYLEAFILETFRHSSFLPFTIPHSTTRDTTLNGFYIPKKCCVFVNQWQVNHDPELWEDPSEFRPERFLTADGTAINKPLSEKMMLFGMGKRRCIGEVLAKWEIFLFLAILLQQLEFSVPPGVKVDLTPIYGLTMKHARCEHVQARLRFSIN

Chain of cytochrome P450 2C9 (P11712 whole entry): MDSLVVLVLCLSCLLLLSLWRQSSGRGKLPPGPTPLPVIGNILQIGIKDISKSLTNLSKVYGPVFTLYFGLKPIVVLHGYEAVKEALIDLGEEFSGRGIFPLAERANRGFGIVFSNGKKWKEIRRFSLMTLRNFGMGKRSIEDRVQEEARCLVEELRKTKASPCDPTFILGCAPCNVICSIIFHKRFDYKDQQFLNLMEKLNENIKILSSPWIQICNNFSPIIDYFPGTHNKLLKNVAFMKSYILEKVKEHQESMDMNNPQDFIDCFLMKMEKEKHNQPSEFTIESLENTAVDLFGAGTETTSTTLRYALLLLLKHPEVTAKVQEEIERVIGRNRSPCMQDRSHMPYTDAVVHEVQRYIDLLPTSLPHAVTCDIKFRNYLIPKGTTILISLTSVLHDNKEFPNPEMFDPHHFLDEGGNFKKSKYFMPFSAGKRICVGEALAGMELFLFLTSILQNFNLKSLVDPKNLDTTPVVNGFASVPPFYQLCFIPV
T1 sequence (Q9UM73 19-1620): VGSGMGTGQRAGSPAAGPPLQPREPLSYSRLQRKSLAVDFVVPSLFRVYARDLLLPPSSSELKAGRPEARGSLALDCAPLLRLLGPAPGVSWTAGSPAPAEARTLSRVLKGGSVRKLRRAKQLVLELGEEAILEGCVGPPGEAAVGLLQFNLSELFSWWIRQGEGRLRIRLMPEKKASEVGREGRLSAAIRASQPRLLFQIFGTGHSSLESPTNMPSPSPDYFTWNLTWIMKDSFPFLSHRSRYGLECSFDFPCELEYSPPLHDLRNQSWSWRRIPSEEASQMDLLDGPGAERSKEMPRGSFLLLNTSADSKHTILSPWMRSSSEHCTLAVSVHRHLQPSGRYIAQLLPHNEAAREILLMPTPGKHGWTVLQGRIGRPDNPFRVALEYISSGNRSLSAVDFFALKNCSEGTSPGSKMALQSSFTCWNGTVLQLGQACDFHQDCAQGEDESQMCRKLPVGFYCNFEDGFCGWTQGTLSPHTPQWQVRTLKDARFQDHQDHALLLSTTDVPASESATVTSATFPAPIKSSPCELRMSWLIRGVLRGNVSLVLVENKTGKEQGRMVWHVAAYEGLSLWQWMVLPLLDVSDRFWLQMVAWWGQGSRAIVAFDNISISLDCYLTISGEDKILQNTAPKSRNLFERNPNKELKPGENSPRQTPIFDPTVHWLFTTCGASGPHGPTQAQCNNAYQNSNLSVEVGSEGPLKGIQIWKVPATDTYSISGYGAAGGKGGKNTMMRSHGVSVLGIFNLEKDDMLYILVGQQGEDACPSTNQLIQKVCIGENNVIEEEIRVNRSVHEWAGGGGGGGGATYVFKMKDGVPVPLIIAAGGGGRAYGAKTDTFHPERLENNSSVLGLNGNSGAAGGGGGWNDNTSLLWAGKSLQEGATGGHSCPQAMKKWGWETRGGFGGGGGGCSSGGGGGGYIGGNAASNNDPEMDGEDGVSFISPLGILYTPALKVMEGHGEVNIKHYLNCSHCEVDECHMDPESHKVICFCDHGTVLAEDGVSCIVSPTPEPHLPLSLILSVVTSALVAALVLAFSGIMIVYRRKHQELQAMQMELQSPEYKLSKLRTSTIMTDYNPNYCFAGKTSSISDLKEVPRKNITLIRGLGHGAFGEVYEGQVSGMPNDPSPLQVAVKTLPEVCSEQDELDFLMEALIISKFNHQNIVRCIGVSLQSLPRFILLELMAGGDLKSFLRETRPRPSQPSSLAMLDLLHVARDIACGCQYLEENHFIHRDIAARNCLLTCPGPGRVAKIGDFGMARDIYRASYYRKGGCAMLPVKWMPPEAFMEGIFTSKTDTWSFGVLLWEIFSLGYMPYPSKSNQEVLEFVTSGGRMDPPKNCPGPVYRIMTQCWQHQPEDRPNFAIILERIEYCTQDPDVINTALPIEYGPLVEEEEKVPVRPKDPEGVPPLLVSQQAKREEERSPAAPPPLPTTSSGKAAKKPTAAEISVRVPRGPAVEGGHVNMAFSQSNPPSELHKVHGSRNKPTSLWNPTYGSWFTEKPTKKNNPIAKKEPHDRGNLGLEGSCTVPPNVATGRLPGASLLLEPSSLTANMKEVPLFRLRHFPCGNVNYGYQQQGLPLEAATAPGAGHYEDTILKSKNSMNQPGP
Chain of cytochrome P450 3A4 (P08684 whole entry): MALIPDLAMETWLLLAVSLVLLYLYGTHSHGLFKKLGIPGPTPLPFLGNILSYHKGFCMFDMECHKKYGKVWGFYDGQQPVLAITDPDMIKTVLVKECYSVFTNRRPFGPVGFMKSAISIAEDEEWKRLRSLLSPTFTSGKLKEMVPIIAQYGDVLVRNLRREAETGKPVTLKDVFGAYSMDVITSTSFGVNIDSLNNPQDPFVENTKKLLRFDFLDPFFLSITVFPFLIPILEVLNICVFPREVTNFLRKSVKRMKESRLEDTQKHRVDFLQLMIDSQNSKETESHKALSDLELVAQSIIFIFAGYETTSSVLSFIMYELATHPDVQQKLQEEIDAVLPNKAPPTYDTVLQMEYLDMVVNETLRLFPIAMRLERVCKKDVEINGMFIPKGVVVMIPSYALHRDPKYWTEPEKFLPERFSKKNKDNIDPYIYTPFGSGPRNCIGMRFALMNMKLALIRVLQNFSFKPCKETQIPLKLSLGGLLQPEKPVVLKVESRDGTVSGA
Chain of cytochrome P450 2C19 (P33261 whole entry): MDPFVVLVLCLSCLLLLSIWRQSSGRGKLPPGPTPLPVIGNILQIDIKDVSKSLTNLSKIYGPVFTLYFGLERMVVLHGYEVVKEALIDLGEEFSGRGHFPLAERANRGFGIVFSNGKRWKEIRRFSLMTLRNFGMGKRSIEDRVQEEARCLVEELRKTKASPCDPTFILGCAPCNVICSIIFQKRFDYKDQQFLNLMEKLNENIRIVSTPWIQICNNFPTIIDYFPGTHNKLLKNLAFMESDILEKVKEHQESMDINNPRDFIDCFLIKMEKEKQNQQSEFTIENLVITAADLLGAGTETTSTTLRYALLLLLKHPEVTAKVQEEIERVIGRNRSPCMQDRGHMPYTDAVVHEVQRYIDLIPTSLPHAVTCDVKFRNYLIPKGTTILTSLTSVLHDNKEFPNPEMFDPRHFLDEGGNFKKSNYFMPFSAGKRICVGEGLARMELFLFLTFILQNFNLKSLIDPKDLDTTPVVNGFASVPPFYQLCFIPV
Chain of cytochrome P450 2D6 (P10635 whole entry): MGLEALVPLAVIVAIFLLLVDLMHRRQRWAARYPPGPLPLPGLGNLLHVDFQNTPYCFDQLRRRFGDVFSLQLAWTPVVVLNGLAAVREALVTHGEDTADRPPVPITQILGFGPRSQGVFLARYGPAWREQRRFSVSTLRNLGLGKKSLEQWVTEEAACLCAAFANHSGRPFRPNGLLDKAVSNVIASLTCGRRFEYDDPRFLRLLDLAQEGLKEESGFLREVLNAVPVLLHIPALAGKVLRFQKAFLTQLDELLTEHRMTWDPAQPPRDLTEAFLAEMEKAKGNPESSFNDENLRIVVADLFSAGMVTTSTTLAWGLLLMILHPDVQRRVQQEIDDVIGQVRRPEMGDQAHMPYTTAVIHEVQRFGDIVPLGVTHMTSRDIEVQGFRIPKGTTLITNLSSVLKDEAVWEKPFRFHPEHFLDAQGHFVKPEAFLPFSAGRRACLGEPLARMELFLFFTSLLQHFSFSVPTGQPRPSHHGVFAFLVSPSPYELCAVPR

| SMILES | IC50 (cytochrome P450 2D6) | IC50 (cytochrome P450 3A4) | IC50 (cytochrome P450 2C9) | IC50 (Karpas-299 cell line) | IC50 (Wild Type ALK kinase) | IC50 (cytochrome P450 2C19) | IC50 (cytochrome P450 1A2) |
| --- | --- | --- | --- | --- | --- | --- | --- |
| Cc1cc(Nc2ncc(Cl)c(Nc3cn(C)nc3S(=O)(=O)C(C)C)n2)c(OC2CC2)cc1C1CC(C)N(C)C(C)C1 (stereo not drawn) [Final product 95] | > 10 µM | > 10 µM | > 10 µM | 0.004 µM | 0.002 µM | > 10 µM | > 10 µM |
| Cc1cc(Nc2ncc(Cl)c(Nc3cn(C)nc3S(=O)(=O)C(C)C)n2)c(OC2CC2)cc1C1CCN(CCO)CC1 [Final product 133, 2-(4-(4-(5-chloro-4-(3-(isopropylsulfonyl)-1-methyl-1H-pyrazol-4-amino)pyrimidin-2-amino)-5-cyclopropoxy-2-methylphenyl)piperidin-1-yl) ethanol] | > 10 µM | > 10 µM | > 10 µM | 0.004 µM | 0.002 µM | > 10 µM | > 10 µM |
| Cc1cc(Nc2ncc(Cl)c(Nc3cn(C)nc3S(=O)(=O)C(C)C)n2)c(OC2CC2)cc1C1CCN(CCN(C)C)CC1 [Final product 146, 5-chloro-N^2-(2-cyclopropoxy-4-(1-(2-(dimethylamino)ethyl)piperidin-4-yl)-5-methylphenyl)-N^4-(3-(isopropylsulfonyl)-1-methyl-1H-pyrazol-4-yl)-pyrimidin-2,4-diamine] | > 10 µM | > 10 µM | > 10 µM | 0.015 µM | 0.002 µM | > 10 µM | > 10 µM |
| Cc1cc(Nc2ncc(Cl)c(Nc3cn(C)nc3S(=O)(=O)C(C)C)n2)c(OC2CC2)cc1C1CCN(C2COC2)CC1 [Final product 156] | > 10 µM | > 10 µM | > 10 µM | 0.019 µM | 0.01 µM | > 10 µM | > 10 µM |
| CC(=O)N1CCC(c2cc(OC3CC3)c(Nc3ncc(Cl)c(Nc4cn(C)nc4S(=O)(=O)C(C)C)n3)cc2C)CC1 [Final product 160, 1-acetyl-4-(4-(5-chloro-4-(3-(isopropylsulfonyl)-1-methyl-1H-pyrazol-4-amino)pyrimidin-2-amine)-5-cyclopropoxy-2-methylphenyl)piperidine] | > 10 µM | > 10 µM | > 10 µM | 0.014 µM | 0.007 µM | > 10 µM | > 10 µM |
| Cc1cc(Nc2ncc(Cl)c(Nc3cn(C)nc3S(=O)(=O)C(C)C)n2)c(OC2CC2)cc1C1CCN(C(=O)C(F)(F)F)CC1 [Final product 161, 1-trifluoroacetyl-4-(4-(5-chloro-4-(3-(isopropylsulfonyl)-1-methyl-1H-pyrazol-4-amino)pyrimidin-2-amine)-5-cyclopropoxy-2-methylphenyl)piperidine] | > 10 µM | > 10 µM | > 10 µM | 0.027 µM | 0.032 µM | > 10 µM | > 10 µM |
| Cc1cc(Nc2ncc(Cl)c(Nc3cn(C)nc3S(=O)(=O)C(C)C)n2)c(OC2CC2)cc1C1CCN(C(=O)CC#N)CC1 [Final product 166, 1-cyano acetyl-4-(4-(5-chloro-4-(3-(isopropylsulfonyl)-1-methyl-1H-pyrazol-4-amino)pyrimidin-2-amine)-5-cyclopropoxy-2-methylphenyl)piperidine] | > 10 µM | > 10 µM | > 10 µM | 0.008 µM | 0.003 µM | > 10 µM | > 10 µM |
| Cc1cc(Nc2ncc(Cl)c(Nc3cn(C)nc3S(=O)(=O)C(C)C)n2)c(OC2CC2)cc1C1CCN(S(C)(=O)=O)CC1 [Final product 167, 5-chloro-N^2-(2-cyclopropoxy-5-methyl-4-(1-methanesulfonyl-piperidin-4-yl)-phenyl)-N^4-(3-(isopropylsulfonyl)-1-methyl-1H-pyrazol-4-yl)pyrimidin-2,4-diamine] | > 10 µM | > 10 µM | > 10 µM | 0.018 µM | 0.009 µM | > 10 µM | > 10 µM |
| CC(=O)N1CCN([C@H]2CC[C@H](c3cc(OC4CC4)c(Nc4ncc(Cl)c(Nc5cn(C)nc5S(=O)(=O)C(C)C)n4)cc3C)CC2)CC1 [Final product 204] | > 10 µM | > 10 µM | > 10 µM | 0.007 µM | 0.007 µM | > 10 µM | > 10 µM |
